The values that follow come from patent EP0334218A1, “Solid, especially suited for oral and rectal adiministration, etofenamate-containing preparations” (HEXAL-PHARMA GMBH & CO. KG, priority 1988, dated 1989).

Converted amounts (≈) assume the structure as drawn.

The series in a line: Solubility behaviour (dissolved etofenamate over time) in distilled water. The conditions noted are these: 22° C, read-out: Etofenamat gelöst. It is filed as physicochemical. The method, then:
Vergleich des Löslichkeitsverhaltens von reinem Etofenamat und zwei Etofenamat-Cyclodextrinzubereitungen gemäß der Erfindung:
Die Untersuchungen wurden in destilliertem Wasser bei 22° C durchgeführt und erbrachten die folgenden Ergebnisse: […]

As for `O=C(OCCOCCO)c1ccccc1Nc1cccc(C(F)(F)F)c1` [Etofenamat, 2-(2-Hydroxyethoxy)-ethyl-N-(α,α,α-trifluoro-m-tolyl)-anthranilat], under “1 min”, the solubility at 1 min is 9 µg/mL (≈ 24.4 µM). Also, the solubility at 0.05 h (3 min) stood at 11 µg/mL (≈ 29.8 µM). Moreover, under “5 min”, the solubility at 5 min was determined as 11 µg/mL (≈ 29.8 µM). Besides, the solubility at 10 min (10 min) worked out at 11 µg/mL (≈ 29.8 µM). The solubility at 0.25 h (15 min) came to 13 µg/mL (≈ 35.2 µM). Also, the solubility at 0.5 h (30 min) is 13 µg/mL (≈ 35.2 µM). The solubility at 0.75 h (45 min) came to 11 µg/mL (≈ 29.8 µM). Under “60 min”, the solubility at 1 h is 12 µg/mL (≈ 32.5 µM).
